Like-named read-outs stand apart in the source and are kept apart here. Marks after values point to notes of the source that are not given here.
Assays:
[1] = biological target: T1, hNTS1R (Homo sapiens, UniProt P30989); settings: HT-29 cells, cited from earlier work
T1 construct: intact HT-29 colon carcinoma cells expressing the hNTS1R; host or cells: HT-29 human colon carcinoma cells

[2] = biological target: T1, hNTS1R; experiment: radioligand competition binding with [3H]UR-MK300 at intact HT-29 cells
[3] = biological target: hNTS2R (Homo sapiens, UniProt O95665); experiment: radioligand competition binding with [3H]UR-MK300 at intact HEK293T-hNTS2R cells; settings: [3H]UR-MK300 c = 10 nM
Experimental: Two days prior to the experiment, white 96-well plates with clear bottoms (Costar, catalog no. 3610) were treated with poly-D-lysine hydrobromide (Sigma-Aldrich) for 10 min. The wells were washed with H2O and the plates were dried on air at rt overnight. […] After removal of the glutaraldehyde solution, the wells were washed twelve times with H2O and two times with culture medium (150–300 µL). […] On the day of the experiment, the culture medium was carefully removed using a multi-channel pipette (Transferpette S-12, Brand, Wertheim, Germany) and the cells were washed once with Dulbecco’s phosphate-buffered saline (D-PBS) containing Ca^2+ and Mg^2+ (1.8 mM CaCl2, 2.68 mM KCl, 1.47 mM KH2PO4, 3.98 mM MgSO4, 136.9 mM NaCl and 8.06 mM Na2HPO4) (200 μL, rt) followed by the careful pre-filling of the wells with 180 µL (total binding) or 160 µL (unspecific and competition binding) of D-PBS, supplemented with 1% BSA and 100 μg/mL bacitracin (Serva, Heidelberg, Germany) (in the following referred to as binding buffer). To determine total binding, 20 µL of a solution of the radioligand in binding buffer (10-fold concentrated compared to the final concentration) were added. […] To determine the displacing effect of a compound of interest, 20 µL of a solution of the respective compound in binding buffer (10-fold concentrated) and 20 µL of a 10-fold concentrated solution of the radioligand in binding buffer were added. During the incubation period of 2 h at 23 °C, the plates were gently shaken. […] The plates were sealed with a transparent sealing tape (permanent seal for microplates, PerkinElmer, product no. 1450–461) and turned upside down several times to achieve complete mixing. Prior to the measurement of the radioactivity with a MicroBeta2 plate counter (PerkinElmer), the plates were kept in the dark for at least 1 h. All experiments were performed in triplicate.

[4] = human plasma, 37 °C, cited from earlier work
[5] = in vitro; assay type: in vitro ADME; settings: human
[6] = biological target: T1, hNTS1R; experiment: fura-2 Ca2+-assay on intact HT-29 cells; assay type: cell-based; settings: maximal response comparable to that of 1
Experimental: The fura-2 calcium assay on intact hNTS1R-expressing HT-29 cells was performed as previously described for human erythroleukemia cells using a Perkin-Elmer LS50 B spectrofluorimeter (PerkinElmer, Rodgau, Germany). At a confluency of 80–95%, cells were trypsinized, detached from the culture flask and the assay was performed as described in the protocol.

[7] = read-out: Ki [nM] NTS2R (converted)
[8] = read-out: pKi ± SD NTS2R (converted)
[9] = ref Schindler et al. [3] of the supplement (= [60])

T1 sequence (P30989 whole entry): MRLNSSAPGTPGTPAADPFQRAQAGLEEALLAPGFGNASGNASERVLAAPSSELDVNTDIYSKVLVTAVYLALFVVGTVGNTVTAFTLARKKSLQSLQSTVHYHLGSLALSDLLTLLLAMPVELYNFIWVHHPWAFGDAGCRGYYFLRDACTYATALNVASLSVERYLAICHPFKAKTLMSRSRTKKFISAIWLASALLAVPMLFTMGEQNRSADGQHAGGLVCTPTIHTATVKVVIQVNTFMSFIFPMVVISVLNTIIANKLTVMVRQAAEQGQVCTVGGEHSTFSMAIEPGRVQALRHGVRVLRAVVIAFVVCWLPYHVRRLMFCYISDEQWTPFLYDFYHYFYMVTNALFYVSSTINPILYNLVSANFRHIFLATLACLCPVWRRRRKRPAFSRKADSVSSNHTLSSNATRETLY
Chain of hNTS2R (O95665 whole entry): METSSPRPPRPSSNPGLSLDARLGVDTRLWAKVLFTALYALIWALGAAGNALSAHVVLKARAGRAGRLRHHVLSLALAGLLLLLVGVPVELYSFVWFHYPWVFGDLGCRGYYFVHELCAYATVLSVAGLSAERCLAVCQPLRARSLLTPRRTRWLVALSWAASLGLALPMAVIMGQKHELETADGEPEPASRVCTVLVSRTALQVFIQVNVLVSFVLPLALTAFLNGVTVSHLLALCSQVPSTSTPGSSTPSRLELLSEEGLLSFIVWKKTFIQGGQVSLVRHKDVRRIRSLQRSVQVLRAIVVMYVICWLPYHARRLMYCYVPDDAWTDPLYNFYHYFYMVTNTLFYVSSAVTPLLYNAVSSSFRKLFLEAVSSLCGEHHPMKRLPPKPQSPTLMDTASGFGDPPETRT

Structure (SMILES): CN[C@@H](CCCNC(=N)N)C(=O)N[C@@H](CCCNC(=N)N)C(=O)N1CCC[C@H]1C(=O)N[C@@H](Cc1ccc(O)cc1)C(=O)N[C@H](C(=O)N[C@@H](CC(C)C)C(=O)O)C(C)(C)C [Compound 3, reference compound]
- pKi NTS1R ([1]; ref Schindler et al. [40]): 9.07
- NTS1R Selectivity (Ratio Ki (NTS2R)/Ki (NTS1R)) [2]: 11
- Ki [3, 7]: 9.9 nM
- Ki [3, 8]: 9.77 nM
- % Intact Peptide in Plasma after 1 h ([4]; ref Schindler et al. [40]): >99 ^d %
- % Intact Peptide in Plasma after 6 h ([4]; ref Schindler et al. [40]): >99 ^d %
- % Intact Peptide in Plasma after 24 h ([4]; ref Schindler et al. [40]): 98 ^d %
- % Intact Peptide in Plasma after 48 h ([4]; ref Schindler et al. [40]): 87 ^d %

Structure (SMILES): CN[C@@H](CCCNC(N)=NC(=O)NCCCCN)C(=O)N[C@@H](CCCNC(=N)N)C(=O)N1CCC[C@H]1C(=O)N[C@@H](Cc1ccc(O)cc1)C(=O)N[C@H](C(=O)N[C@@H](CC(C)C)C(=O)O)C(C)(C)C [Compound 10]
- pKi NTS1R [1, 9]: 8.55
- Ki ([1]; ref Schindler et al. [3] of the supplement (= [60]), read-out: Ki [nM] NTS1R): 2.8 nM
- NTS1R Selectivity (Ratio Ki (NTS2R)/Ki (NTS1R)) [2]: 6.8
- Ki [3, 7]: 19 nM
- Ki [3, 8]: 19.1 nM
- % Intact Peptide in Plasma after 1 h [4, 9]: > 99%
- % Intact Peptide in Plasma after 6 h [4, 9]: > 99%
- % Intact Peptide in Plasma after 24 h [4, 9]: > 99%
- % Intact Peptide in Plasma after 48 h [4, 9]: > 99%

Structure (SMILES): CN[C@@H](CCCNC(N)=NC(=O)NCCCCNC(=O)CN1CCN(CC(=O)O)CCN(CC(=O)O)CCN(CC(=O)O)CC1)C(=O)N[C@@H](CCCNC(=N)N)C(=O)N1CCC[C@H]1C(=O)N[C@@H](Cc1ccc(O)cc1)C(=O)N[C@H](C(=O)N[C@@H](CC(C)C)C(=O)O)C(C)(C)C [Compound 21]
- NTS1R Selectivity (Ratio Ki (NTS2R)/Ki (NTS1R)) [2]: 6.0
- pKi ± SD NTS1R ([2]; [3H]UR-MK300 c = 1 nM, HT-29 cells, 23 °C): 8.01 ± 0.08
- Ki ([2]; [3H]UR-MK300 c = 1 nM, HT-29 cells, 23 °C, read-out: Ki [nM] NTS1R (converted)): 9.9 nM
- pKi ± SD NTS2R [3]: 7.25 ± 0.15
- Ki [3, 7]: 59 nM
- % Intact Peptide in Plasma after 24 h ([5]; 24 h, 100 µM, pH 7.4): 26 ± 1%
- % Intact Peptide in Plasma after 48 h ([5]; 48 h, 100 µM, pH 7.4): 4.1 ± 0.1%
- remaining at 1 h, 100 µM ([5]; plasma, pH 7.4, % Intact Peptide in Plasma after 1 h): > 99%
- remaining at 6 h, 100 µM ([5]; plasma, pH 7.4, % Intact Peptide in Plasma after 6 h): > 99%
- agonistic activity at the Gq-coupled NTS1R [6]: full agonists
